Measured values as given in DBAASP.
Converted amounts (≈) assume the structure as drawn. “And” between values parts separate entries of the source, which are not always exact repeats. Identical values can stand only once.

Tests used:
Assay in all cases: ≥ marks a high value that may be exact or a test limit, other limits are often not marked, values filed in µg/mL are converted to µM
[1] = test system: Mycobacterium tuberculosis H37Rv
[2] = test system: Escherichia coli IFO 12734
[3] = test system: Staphylococcus aureus IFO 12732
[4] = test system: Bacillus subtilis IFO 3513
[5] = test system: Escherichia coli TOP 10
[6] = test system: Escherichia coli BW25113
[7] = test system: Escherichia coli BW25113 ΔsbmA
[8] = test system: Salmonella enterica subsp. enterica serovar Typhimurium ATCC 14028
[9] = test system: Staphylococcus aureus ATCC 25923
[10] = test system: Escherichia coli HB101
[11] = test system: Serratia marcescens ATCC 8100
[12] = test system: Escherichia coli ML-35
[13] = test system: Cryptococcus neoformans ATCC 24067
[14] = test system: Cryptococcus gattii ATCC 32608
[15] = test system: Staphylococcus epidermidis ATCC 12228
[16] = test system: Pseudomonas aeruginosa ATCC 27853
[17] = test system: Staphylococcus aureus ATCC 33591
[18] = test system: Acinetobacter baumannii ATCC 19606
[19] = test system: Escherichia coli ATCC 25922
[20] = test system: Candida krusei ATCC 20029
[21] = test system: Pseudomonas aeruginosa ATCC BAA-427
[22] = test system: Bacillus subtilis ATCC 6633
[23] = test system: Escherichia coli ATCC 10536
[24] = test system: Candida albicans ATCC 64550
[25] = test system: Staphylococcus aureus FDA 209P
[26] = test system: Batrachochytrium dendrobatidis
[27] = test system: Bacillus subtilis KCTC 1918
[28] = test system: Pseudomonas aeruginosa KCTC 1637
[29] = test system: Salmonella typhimurium KCTC 1926
[30] = test system: Staphylococcus epidermidis KCTC 3096
[31] = test system: Candida albicans TIMM 1768
[32] = test system: Trichosporon beigelii KCTC 7707

CC[C@H](C)[C@H](NC(=O)[C@@H]1CCCN1C(=O)[C@H](CCCN=C(N)N)NC(=O)CNC(=O)[C@H](C)NC(=O)[C@H](CCCN=C(N)N)NC(=O)[C@H](Cc1cnc[nH]1)NC(=O)[C@H](C)NC(=O)[C@H](C)N)C(=O)N[C@@H](Cc1cnc[nH]1)C(=O)N[C@@H](CC(=O)O)C(=O)N[C@@H](C)C(=O)NCC(=O)N[C@H](C(=O)N[C@H](C(=O)N[C@@H](CCCCN)C(=O)N[C@@H](CCC(N)=O)C(=O)O)C(C)C)C(C)C [AAHRAGRPIHDAGVVKQ]
MIC [1]: ≥ 112 µM

CC[C@H](C)[C@H](N)C(=O)N[C@@H](CC(C)C)C(=O)N1CCC[C@H]1C(=O)N[C@@H](CCCCN)C(=O)N[C@@H](CCCCN)C(=O)N[C@@H](CCCCN)C(=O)N1CCC[C@H]1C(=O)N[C@@H](Cc1c[nH]c2ccccc12)C(=O)N[C@@H](Cc1c[nH]c2ccccc12)C(=O)N1CCC[C@H]1C(=O)N[C@@H](Cc1c[nH]c2ccccc12)C(=O)N[C@@H](CCCN=C(N)N)C(=O)N[C@@H](CCCN=C(N)N)C(N)=O [ILPKKKPWWPWRR]
MIC [2]: ≥ 55.8 µM
MIC [3]: 3.49 µM (≈ 6.25 µg/mL)
MIC [4]: 3.49 µM (≈ 6.25 µg/mL)

CC[C@H](C)[C@H](NC(=O)[C@H](CCCN=C(N)N)NC(=O)[C@@H](N)CCCN=C(N)N)C(=O)N[C@@H](CCCN=C(N)N)C(=O)N1CCC[C@H]1C(=O)N[C@@H](CCCN=C(N)N)C(=O)N1CCC[C@H]1C(=O)N1CCC[C@H]1C(=O)N[C@@H](CCCN=C(N)N)C(=O)N[C@@H](CC(C)C)C(=O)N1CCC[C@H]1C(=O)N[C@@H](CCCN=C(N)N)C(=O)N1CCC[C@H]1C(=O)N[C@@H](CCCN=C(N)N)C(=O)N1CCC[C@H]1C(=O)N[C@@H](CCCN=C(N)N)C(=O)N1CCC[C@H]1C(=O)N[C@@H](CC(C)C)C(=O)N1CCC[C@H]1C(=O)N[C@@H](Cc1ccccc1)C(=O)N1CCC[C@H]1C(=O)N[C@@H](CCCN=C(N)N)C(=O)N1CCC[C@H]1C(=O)O [RRIRPRPPRLPRPRPRPLPFPRP]
MIC [5]: 4.6 µM (≈ 13.3 µg/mL)
MIC [6]: 7.4 µM (≈ 21.3 µg/mL)
MIC [7]: ≥ 52.1 µM
MIC [8]: 2 µM (≈ 5.76 µg/mL)
MIC [9]: > 128 µM
MIC [10]: 0.5 µM (≈ 1.44 µg/mL)
MIC [11]: 4 µM (≈ 11.5 µg/mL)
MIC [12]: 1 µM (≈ 2.88 µg/mL)

CC[C@H](C)[C@H](N)C(=O)N[C@@H](Cc1c[nH]c2ccccc12)C(=O)N[C@@H](CC(C)C)C(=O)N[C@H](C(=O)N[C@@H](C)C(=O)N[C@@H](CC(C)C)C(=O)N[C@@H](CCCCN)C(=O)N[C@@H](Cc1ccccc1)C(=O)N[C@@H](CC(C)C)C(=O)NCC(=O)N[C@@H](CCCCN)C(=O)N[C@@H](CC(N)=O)C(=O)N[C@@H](CC(C)C)C(=O)NCC(=O)N[C@@H](CCCCN)C(N)=O)[C@@H](C)O [IWLTALKFLGKNLGK]
MIC [13]: 14.9 µM (≈ 25.4 µg/mL)
MIC [14]: 3.73 µM (≈ 6.35 µg/mL)
MIC [15]: 4.18 µM (≈ 7.11 µg/mL)
MIC [16]: 37.6 µM (≈ 64 µg/mL)
MIC [17]: 4.7 µM (≈ 8 µg/mL)
MIC [18]: 5.27 µM (≈ 8.97 µg/mL)
MIC [19]: 14.9 µM (≈ 25.4 µg/mL)
MIC [20]: ≥ 37.6 µM

CC[C@H](C)[C@H](N)C(=O)N[C@@H](CC(C)C)C(=O)NCC(=O)N[C@@H](CCCCN)C(=O)N[C@H](C(=O)N[C@@H](Cc1c[nH]c2ccccc12)C(=O)N[C@@H](CCC(=O)O)C(=O)NCC(=O)N[C@@H](CCCCN)C(=O)N[C@@H](CCCCN)C(=O)N[C@@H](CO)C(=O)N[C@@H](CC(C)C)C(=O)N[C@@H](Cc1ccccc1)C(N)=O)[C@@H](C)CC [ILGKIWEGKKSLF]
MIC [21]: 8 µM (≈ 12.1 µg/mL)
MIC [9]: 8 µM (≈ 12.1 µg/mL)
MIC [22]: 2 µM (≈ 3.04 µg/mL)
MIC [19]: 8 µM (≈ 12.1 µg/mL)
MIC [23]: 4 µM (≈ 6.07 µg/mL)

C[C@H](NC(=O)[C@H](Cc1c[nH]c2ccccc12)NC(=O)[C@H](CCCN=C(N)N)NC(=O)[C@@H](N)Cc1ccc(O)cc1)C(=O)N[C@@H](CCCN=C(N)N)C(=O)N[C@@H](Cc1c[nH]c2ccccc12)C(=O)N[C@@H](Cc1c[nH]c2ccccc12)C(=O)N[C@@H](CCCN=C(N)N)C(=O)N[C@@H](CCCN=C(N)N)C(N)=O [YRWARWWRR]
MIC [16]: 3.48 µM (≈ 5 µg/mL)
MIC [24]: ≥ 100 µM
MIC [9]: 3.48 µM (≈ 5 µg/mL)
MIC [19]: 6.97 µM and 5.22 µM

CC[C@H](C)[C@H](NC(=O)CN)C(=O)N[C@@H](Cc1ccccc1)C(=O)N[C@@H](CO)C(=O)N[C@@H](CCCCN)C(=O)N[C@@H](CC(C)C)C(=O)N[C@@H](C)C(=O)NCC(=O)N[C@@H](CCCCN)C(=O)N[C@@H](CCCCN)C(=O)N[C@H](C(=O)N[C@@H](CCCCN)C(=O)N[C@@H](CC(N)=O)C(=O)N[C@@H](CC(C)C)C(=O)N[C@@H](CC(C)C)C(=O)N[C@H](C(=O)N[C@@H](CO)C(=O)NCC(=O)N[C@@H](CC(C)C)C(=O)N[C@@H](CCCCN)C(=O)N[C@@H](CC(N)=O)C(=O)N[C@H](C(=O)NCC(=O)N[C@@H](CCCCN)C(=O)N[C@@H](CCC(=O)O)C(=O)N[C@H](C(=O)NCC(=O)N[C@@H](CCSC)C(=O)N[C@@H](CC(=O)O)C(=O)N[C@H](C(=O)N[C@H](C(=O)N[C@@H](CCCN=C(N)N)C(=O)N[C@H](C(=O)NCC(=O)N[C@H](C(=O)N[C@@H](CC(=O)O)C(=O)N[C@H](C(=O)N[C@@H](C)C(=O)NCC(=O)N[C@H]1CSSC[C@@H](C(=O)O)NC(=O)[C@H](CCC(=O)O)NC(=O)CNC(=O)[C@H](CCCCN)NC(=O)[C@H]([C@@H](C)CC)NC(=O)[C@H](CCCCN)NC1=O)[C@@H](C)CC)[C@@H](C)CC)[C@@H](C)O)C(C)C)C(C)C)C(C)C)C(C)C)[C@@H](C)CC)[C@@H](C)CC [GIFSKLAGKKIKNLLISGLKNVGKEVGMDVVRTGIDIAGCKIKGEC]
MIC [25]: 4.3 µM (≈ 20.6 µg/mL)
MIC [19]: 2.8 µM (≈ 13.4 µg/mL)
MIC [26]: 25 µM and 12.5 µM

CC[C@H](C)[C@H](NC(=O)CNC(=O)[C@@H](NC(=O)[C@H](CCCCN)NC(=O)[C@H](CCCCN)NC(=O)[C@H](Cc1ccccc1)NC(=O)[C@H](CC(C)C)NC(=O)[C@H](CCCCN)NC(=O)[C@H](Cc1c[nH]c2ccccc12)NC(=O)[C@H](CCCCN)NC(=O)[C@H](CCCCN)NC(=O)[C@H](CCCCN)NC(=O)[C@@H](N)CCCCN)[C@@H](C)CC)C(=O)NCC(=O)N[C@@H](CCCCN)C(=O)N[C@@H](Cc1ccccc1)C(=O)N[C@@H](CC(C)C)C(N)=O [KKKKWKLFKKIGIGKFL]
MIC [27]: 3.12 µM (≈ 6.52 µg/mL)
MIC [28]: 1.56 µM (≈ 3.26 µg/mL)
MIC [29]: 0.19 µM (≈ 0.397 µg/mL)
MIC [30]: 3.12 µM (≈ 6.52 µg/mL)
MIC [31]: 12.5 µM (≈ 26.1 µg/mL)
MIC [32]: 6.25 µM (≈ 13.1 µg/mL)

CC[C@H](C)[C@H](N)C(=O)N[C@@H](CC(C)C)C(=O)N1CCC[C@H]1C(=O)N[C@@H](Cc1c[nH]c2ccccc12)C(=O)N[C@@H](CCCCN)C(=O)N[C@@H](CCCCN)C(=O)N1CCC[C@H]1C(=O)N[C@@H](CCCCN)C(=O)N[C@@H](CC(C)C)C(=O)N1CCC[C@H]1C(=O)N[C@@H](Cc1c[nH]c2ccccc12)C(=O)N[C@@H](CCCN=C(N)N)C(=O)N[C@@H](CCCN=C(N)N)C(N)=O [ILPWKKPKLPWRR]
MIC [2]: 7.28 µM (≈ 12.5 µg/mL)
MIC [3]: 1.82 µM (≈ 3.13 µg/mL)
MIC [4]: 0.908 µM (≈ 1.56 µg/mL)
